Laboratory results from patent publication US12668649B2, “Monoglycerol acrylate based polymer and uses thereof” (priority 2022, dated 2026).

What was measured:
[1] = Critical micellar concentration by Nile red fluorescence; format: physicochemical
Experimental: We characterized the critical micellar concentration (CMC) of the polymers to evaluate their ability to self-assemble into polymolecular structures.
Nile red can be used to measure the CMC of surfactants and polymolecular architectures by following the fluorescence of the dye: the critical micelle concentration coincides with a strong increase in the intensity of the fluorescence (λex/em: 549/628 nm). Serial dilutions of polymers were made in the range of 2.5 to 7×10^−4 mg/mL. 200 μL of each sample were used with 10 μL of Nile Red solution in methanol (1×10^−5 M). Fluorescence was read in a 96-well plate (λex/em: 549/628 nm).

[2] = mouse, in vivo, iv
Experimental: The impact of CTA-PGMA-DODA and PMGA-DODA on the circulation profile of radiolabeled [^14C]-liposomes was studied in healthy Balb/c mice. In this study, the concentrations of radiolabeled liposomes in the blood were monitored for 6 hours after intravenous injection.
Healthy animals were housed in a controlled environment (22° C., 12 hours day/night cycle) with ad libitum access to food and water. A total of 11 healthy male mice were divided in three groups (3-3-5). As a blank, liposomes without polymer on the surface were injected intravenously by the subclavian vein at a concentration of 2 mg/kg of phospholipids. Approximately 30-50 μL of blood was collected at various times (0.25, 0.5, 1, 2, 4, 6 Hours). Six hours post-injection, blood was collected by cardiac puncture for a terminal timepoint. Animals were euthanized by a cardiac perfusion with 3 mL of isotonic phosphate-buffered saline solution pH=7.2 (potassium phosphate 1.1 mmol/L, NaCl 150 mmol/L, disodium phosphate 3 mmol/L) and organs were collected. Biological samples were digested at 58° C. (in Solvable®, Perkin Elmer®), bleached with 30% hydrogen peroxide, and assessed by scintillation counting, using Hionic Fluor® (Perkin Elmer®) as a scintillation cocktail.

CMC [1]	AUC0-6 h of the control liposomes relative to the liposome formulation prepared with the named polymer [2]	Compound	effect on circulation time of liposomes [2]
2 mg/mL	–	CCCCCCCCCCCCOS(=O)(=O)[O-].[Na+] [SDS, sodium dodecyl sulfate]	–
–	1.2 fold	DODA-Terminated Poly(Monoglycerol Acrylate) [PMGA-DODA6.5k]	do not seem to prolong the circulation time
